Source: PubChem BioAssay (NCI)
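Cells were grown in 96-well plates and exposed to each compound for 48 hours at five concentrations; endpoints were interpolated linearly between bracketing concentrations, or set to the highest concentration if not reached. TGI: concentration producing complete growth inhibition.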

Tests used:
Assay in all cases: DTP human tumour cell line panel, 48 h
[1] = test system: M14 melanoma
[2] = test system: NCI/ADR-RES ovarian
[3] = test system: MOLT-4 leukemia
[4] = test system: SNB-19 CNS
[5] = test system: CAKI-1 renal
[6] = test system: IGROV1 ovarian
[7] = test system: NCI-H23 lung
[8] = test system: PC-3 prostate
[9] = test system: HCT-116 colon
[10] = test system: 786-0 renal
[11] = test system: BT-549 breast
[12] = test system: SK-MEL-5 melanoma
[13] = test system: MCF7 breast
[14] = test system: NCI-H460 lung
[15] = test system: OVCAR-5 ovarian
[16] = test system: UO-31 renal
[17] = test system: HT29 colon
[18] = test system: EKVX NSCLC
[19] = test system: MALME-3M melanoma
[20] = test system: KM12 colon
[21] = test system: SF-539 CNS
[22] = test system: OVCAR-3 ovarian
[23] = test system: SNB-75 CNS
[24] = test system: RXF 393 renal
[25] = test system: SF-295 CNS
[26] = test system: SK-MEL-2 melanoma
[27] = test system: DU-145 prostate
[28] = test system: HS 578T breast
[29] = test system: MDA-N
[30] = test system: MDA-MB-435
[31] = test system: HCC-2998 colon
[32] = test system: HOP-92 NSCLC
[33] = test system: SW-620 colon
[34] = test system: CCRF-CEM leukemia
[35] = test system: UACC-62 melanoma
[36] = test system: OVCAR-4 ovarian
[37] = test system: COLO 205 colon
[38] = test system: A498 renal
[39] = test system: A549 NSCLC
[40] = test system: T-47D breast
[41] = test system: HL-60(TB) leukemia
[42] = test system: SF-268 CNS
[43] = test system: RPMI-8226 leukemia
[44] = test system: HOP-62 NSCLC
[45] = test system: HCT-15 colon
[46] = test system: OVCAR-8 ovarian
[47] = test system: ACHN renal
[48] = test system: K-562 leukemia
[49] = test system: SK-MEL-28 melanoma
[50] = test system: NCI-H522 lung
[51] = test system: SK-OV-3 ovarian
[52] = test system: LOX IMVI melanoma
[53] = test system: SN12C renal
[54] = test system: NCI-H226 lung
[55] = test system: SR leukemia
[56] = test system: UACC-257 melanoma
[57] = test system: MDA-MB-231 breast
[58] = test system: U251 CNS
[59] = test system: TK-10 renal

COc1cc(S(=O)(=O)Nc2ccc(-c3csc(N4C(=O)CSC4c4ccccc4)n3)cc2)ccc1Cl (configuration not stated)
TGI [1]: > 100 µM
TGI [2]: > 100 µM
TGI [3]: > 100 µM
TGI [4]: > 100 µM
TGI [5]: > 100 µM
TGI [6]: > 100 µM
TGI [7]: > 100 µM
TGI [8]: > 100 µM
TGI [9]: > 100 µM
TGI [10]: > 100 µM
TGI [11]: > 100 µM
TGI [12]: > 100 µM
TGI [13]: 87.4 µM
TGI [14]: > 100 µM
TGI [15]: > 100 µM
TGI [16]: > 100 µM
TGI [17]: > 100 µM
TGI [18]: > 100 µM
TGI [19]: > 100 µM
TGI [20]: > 100 µM
TGI [21]: > 100 µM
TGI [22]: > 100 µM
TGI [23]: > 100 µM
TGI [24]: 64.5 µM
TGI [25]: > 100 µM
TGI [26]: > 100 µM
TGI [27]: > 100 µM
TGI [28]: > 100 µM
TGI [29]: > 100 µM
TGI [30]: > 100 µM
TGI [31]: 42.4 µM
TGI [32]: 54.4 µM
TGI [33]: > 100 µM
TGI [34]: > 100 µM
TGI [35]: 39.6 µM
TGI [36]: > 100 µM
TGI [37]: > 100 µM
TGI [38]: 3.61 µM
TGI [39]: > 100 µM
TGI [40]: 44.7 µM
TGI [41]: 55.7 µM
TGI [42]: > 100 µM
TGI [43]: 89.3 µM
TGI [44]: > 100 µM
TGI [45]: > 100 µM
TGI [46]: > 100 µM
TGI [47]: > 100 µM
TGI [48]: > 100 µM
TGI [49]: 65.1 µM
TGI [50]: > 100 µM
TGI [51]: > 100 µM
TGI [52]: > 100 µM
TGI [53]: > 100 µM
TGI [54]: > 100 µM
TGI [55]: > 100 µM
TGI [56]: > 100 µM

Cc1ccc(C(=O)/C(C#N)=C/Nc2c(C)n(C)n(-c3ccccc3)c2=O)cc1
TGI [1]: > 100 µM
TGI [3]: > 100 µM
TGI [4]: > 100 µM
TGI [5]: > 100 µM
TGI [6]: > 100 µM
TGI [7]: > 100 µM
TGI [8]: > 100 µM
TGI [9]: > 100 µM
TGI [57]: > 100 µM
TGI [10]: > 100 µM
TGI [11]: > 100 µM
TGI [12]: > 100 µM
TGI [13]: > 100 µM
TGI [14]: > 100 µM
TGI [15]: > 100 µM
TGI [58]: > 100 µM
TGI [16]: > 100 µM
TGI [17]: > 100 µM
TGI [18]: > 100 µM
TGI [19]: > 100 µM
TGI [20]: > 100 µM
TGI [59]: > 100 µM
TGI [21]: > 100 µM
TGI [22]: > 100 µM
TGI [24]: > 100 µM
TGI [25]: > 100 µM
TGI [26]: > 100 µM
TGI [27]: > 100 µM
TGI [28]: > 100 µM
TGI [29]: > 100 µM
TGI [30]: > 100 µM
TGI [31]: > 100 µM
TGI [32]: > 100 µM
TGI [33]: > 100 µM
TGI [34]: > 100 µM
TGI [35]: > 100 µM
TGI [36]: > 100 µM
TGI [37]: > 100 µM
TGI [38]: > 100 µM
TGI [39]: > 100 µM
TGI [40]: > 100 µM
TGI [41]: > 100 µM
TGI [42]: > 100 µM
TGI [43]: > 100 µM
TGI [44]: > 100 µM
TGI [45]: > 100 µM
TGI [47]: > 100 µM
TGI [48]: > 100 µM
TGI [49]: > 100 µM
TGI [50]: > 100 µM
TGI [51]: > 100 µM
TGI [52]: > 100 µM
TGI [53]: > 100 µM
TGI [54]: > 100 µM
TGI [55]: > 100 µM
TGI [56]: > 100 µM
